This is an account of results in US20230072683A1, “PYRIDO-PYRIMIDIN DERIVATIVES AND PHARMACEUTICAL COMPOSITION, FOR USE IN PREVENTING OR TREATING PI3 KINASE RELATED DISEASES, COMPRISING SAME AS ACTIVE INGREDIENT” (BORYUNG PHARMACEUTICAL CO., LTD, priority 2019, published 2023).

The target in assay [1] is PI3K-δ (PI3K(p1108/p857) (h)) (Homo sapiens, UniProt O00329). The assay can be described thus: Evaluation of inhibitory activity against PI3K-δ (HTRF kinase assay). In kind it is biochemical. The following applies: for inhibition at 0.01 µM: compound concentration 0.01 μM, read-out: EXP_VALUE(% Inhibition) PI3K-δ 0.01 μM; for inhibition at 0.1 µM: compound concentration 0.1 μM, read-out: EXP_VALUE(% Inhibition) PI3K-δ 0.1 μM. The procedure, abridged:
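HTRF read-out (665/620 nm ratio ×10000) used Eu-labelled anti-GST, GST-tagged GRP1 PH domain and streptavidin-allophycocyanin after EDTA/PIP3 stop.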

In the next assay the target is DNA-PK(h) (Homo sapiens, UniProt P78527). As to the kind of experiment: Evaluation of inhibitory activity against DNA-PK (HTRF kinase assay, GST-cMyc-p53 substrate). In kind it is biochemical. The following applies: for inhibition at 0.01 µM: compound concentration 0.01 μM, read-out: EXP_VALUE(% Inhibition) DNA-PK(h) 0.01 μM; for inhibition at 0.1 µM: compound concentration 0.1 μM, read-out: EXP_VALUE(% Inhibition) DNA-PK(h) 0.1 μM. Put shortly:
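p53 Ser15 phosphorylation by human DNA-PK was measured by time-resolved FRET ratio (665/620 nm ×10000) using Eu-labelled anti-phospho-Ser15 and d2 anti-GST antibodies. Substrate GST-cMyc-p53 at 50 μM; Mg/ATP-initiated, 30 min at room temperature, EDTA stop.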

Sequence of PI3K-δ (PI3K(p1108/p857) (h)) (O00329 whole entry, the tested form may be a part): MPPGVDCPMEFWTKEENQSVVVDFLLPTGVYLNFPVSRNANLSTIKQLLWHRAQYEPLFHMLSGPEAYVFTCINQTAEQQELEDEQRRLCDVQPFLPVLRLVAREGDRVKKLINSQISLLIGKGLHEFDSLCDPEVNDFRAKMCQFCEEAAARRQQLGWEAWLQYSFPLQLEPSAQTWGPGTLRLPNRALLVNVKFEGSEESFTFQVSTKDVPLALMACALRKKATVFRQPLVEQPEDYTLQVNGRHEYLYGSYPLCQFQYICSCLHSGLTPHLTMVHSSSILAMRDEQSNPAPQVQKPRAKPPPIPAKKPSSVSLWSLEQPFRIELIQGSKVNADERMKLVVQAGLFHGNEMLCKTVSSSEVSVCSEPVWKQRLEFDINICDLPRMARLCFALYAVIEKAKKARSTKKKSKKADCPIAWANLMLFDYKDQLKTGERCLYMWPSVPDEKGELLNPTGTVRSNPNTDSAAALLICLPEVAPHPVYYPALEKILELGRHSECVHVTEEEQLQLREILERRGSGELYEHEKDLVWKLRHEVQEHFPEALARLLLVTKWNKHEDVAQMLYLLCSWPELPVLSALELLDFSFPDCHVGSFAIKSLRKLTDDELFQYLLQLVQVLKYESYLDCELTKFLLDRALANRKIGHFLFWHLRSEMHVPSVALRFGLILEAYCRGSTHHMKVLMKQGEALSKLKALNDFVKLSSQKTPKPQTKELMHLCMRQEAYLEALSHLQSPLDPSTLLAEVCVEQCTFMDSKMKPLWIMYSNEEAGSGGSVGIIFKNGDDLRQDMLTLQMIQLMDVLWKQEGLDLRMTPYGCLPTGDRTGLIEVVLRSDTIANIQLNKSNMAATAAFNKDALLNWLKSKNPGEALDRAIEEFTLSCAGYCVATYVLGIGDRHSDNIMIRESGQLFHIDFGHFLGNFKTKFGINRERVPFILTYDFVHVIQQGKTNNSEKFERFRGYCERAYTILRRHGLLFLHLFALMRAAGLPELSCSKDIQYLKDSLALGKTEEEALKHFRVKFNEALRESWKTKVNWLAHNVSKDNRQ
Sequence of PI3K-δ (PI3K(p1108/p857) (h)) (P27986 whole entry partner, the tested form may be a part): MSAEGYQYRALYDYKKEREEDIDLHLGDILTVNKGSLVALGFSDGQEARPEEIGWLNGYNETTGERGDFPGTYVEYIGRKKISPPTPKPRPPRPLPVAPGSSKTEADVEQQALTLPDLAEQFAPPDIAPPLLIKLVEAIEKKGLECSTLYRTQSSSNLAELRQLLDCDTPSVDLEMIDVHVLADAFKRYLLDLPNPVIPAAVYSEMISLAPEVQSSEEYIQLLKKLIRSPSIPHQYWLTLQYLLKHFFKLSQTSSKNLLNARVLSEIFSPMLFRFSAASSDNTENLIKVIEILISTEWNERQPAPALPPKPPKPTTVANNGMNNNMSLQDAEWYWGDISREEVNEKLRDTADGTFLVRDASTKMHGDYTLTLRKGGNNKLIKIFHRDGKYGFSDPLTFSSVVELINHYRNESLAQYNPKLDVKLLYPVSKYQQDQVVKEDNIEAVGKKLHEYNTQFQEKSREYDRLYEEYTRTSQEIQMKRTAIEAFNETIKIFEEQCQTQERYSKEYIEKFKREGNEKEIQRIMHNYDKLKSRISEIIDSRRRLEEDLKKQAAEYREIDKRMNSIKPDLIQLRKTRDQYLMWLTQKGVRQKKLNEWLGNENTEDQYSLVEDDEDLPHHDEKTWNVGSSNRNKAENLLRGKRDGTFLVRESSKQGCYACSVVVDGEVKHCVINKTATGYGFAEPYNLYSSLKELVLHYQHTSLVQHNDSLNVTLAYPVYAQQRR

Turning to `C[C@H](Nc1ncnc2[nH]ccc(=O)c12)c1c(Cl)c2cccc(-c3ccc(-c4ccccc4)cc3)c2c(=O)n1-c1ccccc1` [Example 254, (S)-4-((1-(8-([1,1′-biphenyl]-4-yl)-4-chloro-1-oxo-2-phenyl-1,2-dihydroisoquinolin-3-yl)ethyl)amino)pyrido[2,3-d]pyrimidin-5(8H)-one], in assay [1], the inhibition at 0.01 µM amounted to 96% and the inhibition at 0.1 µM came to 110%. Further, at DNA-PK(h), the inhibition at 0.01 µM turned out to be 40% and the inhibition at 0.1 µM was found to be 82%.

`CNC(=O)c1ccc(-c2cccc3c(Cl)c([C@H](C)Nc4ncnc5[nH]ccc(=O)c45)n(-c4ccccc4)c(=O)c23)cn1` [Example 196, (S)-5-(4-chloro-1-oxo-3-(1-((5-oxo-5,8-dihydropyrido[2,3-d]pyrimidin-4-yl)amino)ethyl)-2-phenyl-1,2-dihydroisoquinolin-8-yl)-N-methylpicolinamide]: the inhibition at 0.01 µM was determined as 127% in assay [1] and 101% at DNA-PK(h).

Take `CCOc1ncc(-c2cccc3c(Cl)c([C@H](C)Nc4ncnc5[nH]ccc(=O)c45)n(-c4ccccc4)c(=O)c23)cn1` [Example 188, (S)-4-((1-(4-chloro-8-(2-ethoxypyrimidin-5-yl)-1-oxo-2-phenyl-1,2-dihydroisoquinolin-3-yl)ethyl)amino)pyrido[2,3-d]pyrimidin-5(8H)-one]: the inhibition at 0.01 µM was 101% in assay [1] and 67% on DNA-PK(h).

For the molecule `C[C@H](Nc1ncnc2[nH]ccc(=O)c12)c1c(Cl)c2cccc(Nc3ccc(C(F)(F)F)cc3)c2c(=O)n1-c1ccccc1` [Example 346, (S)-4-((1-(4-chloro-1-oxo-2-phenyl-8-((4-(trifluoromethyl)phenyl)amino)-1,2-dihydroisoquinolin-3-yl)ethyl)amino)pyrido[2,3-d]pyrimidin-5(8H)-one], the values for the inhibition at 0.01 µM (in assay [1]; on DNA-PK(h)) were 9% and 1%, respectively.

For the molecule `C[C@H](Nc1ncnc2[nH]ccc(=O)c12)c1c(Cl)c2cccc(N3CCN(C)CC3)c2c(=O)n1-c1ccccc1` [Example 250, (S)-4-((1-(4-chloro-8-(4-methylpiperazin-1-yl)-1-oxo-2-phenyl-1,2-dihydroisoquinolin-3-yl)ethyl)amino)pyrido[2,3-d]pyrimidin-5(8H)-one], in assay [1], the inhibition at 0.01 µM was found to be 32% and the inhibition at 0.1 µM was determined as 82%. Further, on DNA-PK(h), the inhibition at 0.01 µM was determined as 0% and the inhibition at 0.1 µM is 57%.

For `C[C@H](Nc1ncnc2[nH]ccc(=O)c12)c1c(Cl)c2cccc(-c3ccc4ocnc4c3)c2c(=O)n1-c1ccccc1` [Example 241, (S)-4-((1-(8-(benzo[d]oxazol-5-yl)-4-chloro-1-oxo-2-phenyl-1,2-dihydroisoquinolin-3-yl)ethyl)amino)pyrido[2,3-d]pyrimidin-5(8H)-one], the inhibition at 0.01 µM in assay [1] was 32%; at DNA-PK(h), 49%.

In the case of `Cc1ccsc1-c1cccc2c(Cl)c([C@H](C)Nc3ncnc4[nH]ccc(=O)c34)n(-c3ccccc3)c(=O)c12` [Example 243, (S)-4-((1-(4-chloro-8-(3-methylthiophen-2-yl)-1-oxo-2-phenyl-1,2-dihydroisoquinolin-3-yl)ethyl)amino)pyrido[2,3-d]pyrimidin-5(8H)-one], the inhibition at 0.01 µM in assay [1] came out at 45%; at DNA-PK(h) it was 32%.

Consider `C[C@H](Nc1ncnc2[nH]ccc(=O)c12)c1c(Cl)c2cccc(NC(=O)C3CCC3)c2c(=O)n1-c1ccccc1` [Example 298, (S)—N-(4-chloro-1-oxo-3-(1-((5-oxo-5,8-dihydropyrido[2,3-d]pyrimidin-4-yl)amino)ethyl)-2-phenyl-1,2-dihydroisoquinolin-8-yl)cyclobutanecarboxamide], for which the inhibition at 0.01 µM in assay [1] amounted to 11%; on DNA-PK(h) it was 50%.
